Tested on: acute panic attacks in patients with panic disorder
Assay: Double-blind, randomized, placebo-controlled clinical trial of alprazolam delivered by inhalation; panic recorded with patient experience diary (PED)
Type: in vivo
Details: for mean peak panic severity / mean panic severity at 12 minutes: 11-point visual analogue scale; for mean panic severity at 12 minutes: 12 minutes following use of the inhaler
Procedure: To determine the efficacy of alprazolam delivered by inhalation in the treatment of acute panic attacks, a clinical trial is conducted. The objectives of the trial are to determine the effectiveness of alprazolam delivered by inhalation at the time of onset of panic symptoms in decreasing the duration and/or severity of acute panic attacks in patients with panic disorder. The duration and severity of acute panic symptoms are measured using a patient experience diary (PED) for the real time assessment of severity of panic attacks. Patients are recruited for the study by posting in various public locations and medical clinics advertisements seeking patients who experience 2 or more panic attacks per week for participation in the study. To enroll patients who have not previously been treated for panic, the advertisement may include a description of panic symptoms, so that patients who experience panic attacks without being aware that such attacks constitute a medical condition are encouraged to volunteer.
The overall study design is a double-blind, randomized, placebo-controlled clinical trial. Patients 18-65 years of age reporting at least 2 panic attacks per week, without history of psychotic disorders, substance abuse disorders, dementia, or severe or life-threatening medical disorders such as serious heart or lung disease, eligible for the study. Patients not currently on medication for panic disorder, as well as patients currently using a stable dose of selective serotonin reuptake inhibitor (SSRI) the treatment of panic disorder are eligible for the study, as are patients currently taking alprazolam or other benzodiazepines on a PRN basis, if the patients agree not to use such drugs during the study period. Patients using chronic benzodiazepines or other sedative hypnotics for the treatment of panic disorder are excluded from the study, as are patients using psychotropic medications other than SSRIs or unstable SSRI doses. Eligible patients are enrolled in the study after being explained the risks and benefits of the study and signing informed consent.
The patients are then trained in use of the PED described in Examples 1 and 2 above, set to an every 3 minute prompting interval. After being trained in use of the PED, the patients then take the PED home for 3 weeks of use. During these 3 weeks, patients must record at least one panic attack per week in the diary of duration greater than 12 minutes (time from initial diary entry until the patient answers “not at all” to the item regarding the severity of their panic symptoms right now) to proceed to the randomization point in the study. Patients recording less than one panic attack per week, only very brief (less than 12 minute duration panic attacks), or having difficulty using the diary are dropped from the study. At this point, continuing patients are randomized to receive placebo inhaler, inhaler dispensing alprazolam 0.25 mg as an aerosol having an approximately 2 μm mass median aerodynamic diameter (MMAD), or inhaler dispensing alprazolam 0.5 mg as an aerosol having an approximately 2 μm MMAD. Patients are given four identical inhalers each, and instructed to use the inhalers at the time of their next 4 panic attacks (only 1 inhaler per attack). In particular, the patients are instructed to start the PED at the initiation of panic symptoms before taking their medication, to take the medication when prompted by the PED, and then to record the course of the panic attack after taking the medication as prompted by the PED.
Data from the 4 panic attacks during which the inhaler is used as panic treatment are recorded in the PED and transmitted to a central data storage site. The data is analyzed after each patient records 4 panic attacks, or after 8 weeks passes from the time the patient received the inhalers. […]

SMILES: Cc1nnc2n1-c1ccc(Cl)cc1C(c1ccccc1)=NC2 [alprazolam, 8-chloro-1-methyl-6-phenyl-4H-[1,2,4]triazolo[4,3-α] [1,4]benzodiazepine]
- mean peak panic severity (alprazolam 0.25 mg by inhaler): 6
- mean panic severity at 12 minutes (alprazolam 0.25 mg by inhaler): 3 out of 10
- mean peak panic severity (alprazolam 0.5 mg by inhaler): 6
- mean panic severity at 12 minutes (alprazolam 0.5 mg by inhaler): 1.5 out of 10
- mean duration of panic (patients receiving alprazolam 0.25 mg by inhaler (aerosol, approx. 2 μm MMAD) at onset of panic attack): 20 min
- mean duration of panic (patients receiving alprazolam 0.5 mg by inhaler (aerosol, approx. 2 μm MMAD) at onset of panic attack): 10 min

Source: patent US20050131739A1, “Methods for monitoring severity of panic attacks and other rapidly evolving medical events in real time” (Alexza Molecular Delivery Corporation, priority 2003, published 2005)
